Source: patent US9663495B2 (YUHAN CORPORATION, priority 2013, dated 2017)

What was measured:
GPR119 [1] = biological target: T1, GPR119 (Homo sapiens, UniProt Q8TDV5); experiment: cAMP Accumulation Assay (GPR119 CRE-bla CHO-K1 cells, LiveBLAzer-FRET B/G); type: cell-based; conditions: for EC50: 5 hours incubation; for Emax (Fold): maximum activity, response ratio versus non-treated control group
T1 construct: host or cells: CHO-K1 (GPR119 CRE-bla, doxycycline-induced)
T1 sequence (Q8TDV5 1-335): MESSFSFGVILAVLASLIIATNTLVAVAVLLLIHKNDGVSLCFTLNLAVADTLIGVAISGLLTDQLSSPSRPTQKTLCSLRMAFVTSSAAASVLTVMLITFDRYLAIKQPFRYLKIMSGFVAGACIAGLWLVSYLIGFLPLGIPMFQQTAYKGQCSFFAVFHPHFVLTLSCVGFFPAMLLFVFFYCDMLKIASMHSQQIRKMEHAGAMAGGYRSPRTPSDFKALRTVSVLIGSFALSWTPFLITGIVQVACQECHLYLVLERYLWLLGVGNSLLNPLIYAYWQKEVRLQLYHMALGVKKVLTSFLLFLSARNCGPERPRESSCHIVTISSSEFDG
Description: 32 μl of an assay medium (DMEM supplemented with GlutaMax™ 99%, dialyzed FBS 1%, non-essential amino acid 1 mM, HEPES 25 mM, penicillin 100 U/ml, and streptomycin 100 μg/ml) was added to each well of a 384 black well plate and then the GPR119 CRE-bla CHO-K1 cells (Invitrogen) were seeded in 1×10^4 cells per well. Doxycycline was dissolved in the assay medium in the concentration of 1 μg/ml. The resulting solution (4 μl) was added to each well, which was then incubated in a 5% CO 2 incubator at 37° C. for about 20 to 24 hours. Each test compounds were diluted with the assay medium to prepare 10 samples, which have concentrations ranging from […], respectively. Each samples (8 μl) was added to each well, which was then incubated in a 5% CO2 incubator at 37° C. for 5 hours. In case of the control group, the well was treated with a solution (8 μl) prepared by diluting dimethyl sulfoxide (DMSO) in the assay medium to 1%. The substrate mixture (8 μl) was added to each well, which was then left under darkness at room temperature for 2 hours. The substrate mixture contains the followings: 1 mM LiveBLAzer™-FRET B/G(CCF4-AM) substrate 6 μl, solution B 60 μl, solution C 904 μl, and solution D 30 μl.
Fluorescence intensity was determined under the wavelength conditions of 400 nm/465 nm (excitation/emission) for the blue channel and 400 nm/535 nm (excitation/emission) for the green channel, with the fluorescence microplate reader (SpectraFluor Plus. TECAN). The net activity of each well was calculated by subtracting the average value of the cell-free control group from the value of the unstimulated (i.e., non-treated) control group or the stimulated (i.e., test compound-treated) group at each wavelength. MBX-2982 (Metabolex) was used as a control drug. The response ratio was calculated by dividing the net signal ratio (465 nm/535 nm) of the control drug or the test compound by the net signal ratio (465 nm/535 nm) of the non-treated control group. The relative ratio (R.R) was calculated by dividing the maximum activity [Emax (fold)] of the test compound (i.e., % activity in comparison with the background) by the maximum activity [Emax (fold)] of the control drug (MBX-2982) [Emax (% RR)=(Emax of the test compound/Emax of MBX-2982)×100]. EC50 (half maximal effective concentration) was calculated using the software for statistical analysis “Prism 5.0 (GraphPad)”, based on the values obtained according to concentrations of the test compounds.

GPR119 [2] = biological target: T1, GPR119; experiment: as above; type: cell-based; conditions: (Emax of the test compound/Emax of MBX-2982)x100, 5 hours incubation

In the case of `CCc1cnc(N2CCN(c3ncc(-c4ccc(-n5cnn(CC(C)(C)C#N)c5=O)c(F)c4)cc3C#N)[C@@H](C)C2)nc1` [Example 25, (S)-5-(4-(1-(2-cyano-2-methylpropyl)-5-oxo-1H-1,2,4-triazol-4(5H)-yl)-3-fluorophenyl)-2-(4-(5-ethylpyrimidin-2-yl)-2-methylpiperazin-1-yl)nicotinonitrile], the EC50 (GPR119 [1]) is reported as 2.6 nM, the “Emax (Fold)” value (GPR119 [1]) is reported as 3.3 Fold and the “Emax (% RR)” value (GPR119 [2]) is reported as 116.0 % RR.
With `CCc1cnc(N2CCN(c3ncc(-c4ccc(-n5cnn(CCNC(C)=O)c5=O)c(F)c4)cc3C#N)[C@@H](C)C2)nc1` [Example 26, (S)—N-(2-(4-(4-(5-cyano-6-(4-(5-ethylpyrimidin-2-yl)-2-methylpiperazin-1-yl)pyridin-3-yl)-2-fluorophenyl)-5-oxo-4,5-dihydro-1H-1,2,4-triazol-1-yl)ethyl)acetamide] the EC50 (GPR119 [1]) was 20 nM, the “Emax (Fold)” value (GPR119 [1]) was 3.4 Fold and the “Emax (% RR)” value (GPR119 [2]) was 112.5 % RR.
`CCc1cnc(N2CCN(c3ncc(-c4ccc(-n5cnn(CN6CCN(C)CC6)c5=O)c(F)c4)cc3C#N)[C@@H](C)C2)nc1` [Example 27, (S)-2-(4-(5-ethylpyrimidin-2-yl)-2-methylpiperazin-1-yl)-5-(3-fluoro-4-(1-((4-methylpiperazin-1-yl)methyl)-5-oxo-1H-1,2,4-triazol-4(5H)-yl)phenyl)nicotinonitrile] was tested, and the EC50 (GPR119 [1]) was 3.1 nM, the “Emax (Fold)” value (GPR119 [1]) was 4.0 Fold and the “Emax (% RR)” value (GPR119 [2]) was 149.4 % RR.
For `CCc1cnc(N2CCN(c3ncc(-c4ccc(-n5cnn(CN6CCCC6)c5=O)c(F)c4)cc3C#N)[C@@H](C)C2)nc1` [Example 28, (S)-2-(4-(5-ethylpyrimidin-2-yl)-2-methylpiperazin-1-yl)-5-(3-fluoro-4-(5-oxo-1-(pyrrolidin-1-ylmethyl)-1H-1,2,4-triazol-4(5H)-yl)phenyl)nicotinonitrile], the EC50 (GPR119 [1]) was 4 nM, the “Emax (Fold)” value (GPR119 [1]) was 3.9 Fold and the “Emax (% RR)” value (GPR119 [2]) was 145.6 % RR.
For `CCc1cnc(N2CCN(c3ncc(-c4cc(F)c(-n5cnn(C)c5=O)cc4F)cc3C#N)[C@@H](C)C2)nc1` [Example 29, (S)-5-(2,5-difluoro-4-(1-methyl-5-oxo-1H-1,2,4-triazol-4(5H)-yl)phenyl)-2-(4-(5-ethylpyrimidin-2-yl)-2-methylpiperazin-1-yl)nicotinonitrile], the EC50 (GPR119 [1]) was 1.5 nM, the “Emax (Fold)” value (GPR119 [1]) was 3.1 Fold and the “Emax (% RR)” value (GPR119 [2]) was 110.1 % RR.
For `CCc1cnc(N2CCN(c3ncc(-c4ccc(-n5cnn(C(C)C)c5=O)c(F)c4)cc3C#N)CC2)nc1` [Example 30, 2-(4-(5-ethylpyrimidin-2-yl)piperazin-1-yl)-5-(3-fluoro-4-(1-isopropyl-5-oxo-1H-1,2,4-triazol-4(5H)-yl)phenyl)nicotinonitrile], the EC50 (GPR119 [1]) was 1.5 nM, the “Emax (Fold)” value (GPR119 [1]) was 3.8 Fold and the “Emax (% RR)” value (GPR119 [2]) was 130.9 % RR.
With `CCc1cnc(N2CCN(c3ncc(-c4ccc(-n5cnn(CCOC)c5=O)c(F)c4)cc3C#N)CC2)nc1` [Example 31, 5-(4-(1-(2-methoxyethyl)-5-oxo-1H-1,2,4-triazol-4(5H)-yl)-3-fluorophenyl)-2-(4-(5-ethylpyrimidin-2-yl)piperazin-1-yl)nicotinonitrile] the EC50 (GPR119 [1]) was 10 nM, the “Emax (Fold)” value (GPR119 [1]) was 3.4 Fold and the “Emax (% RR)” value (GPR119 [2]) was 148.7 % RR.
In the case of `CCc1cnc(N2CCN(c3ncc(-c4ccc(-n5cnn(C[C@H](O)CO)c5=O)c(F)c4)cc3C#N)CC2)nc1` [Example 36, (S)-5-(4-(1-(2,3-dihydroxypropyl)-5-oxo-1H-1,2,4-triazol-4(5H)-yl)-3-fluorophenyl)-2-(4-(5-ethylpyrimidin-2-yl)piperazin-1-yl)nicotinonitrile], the EC50 (GPR119 [1]) is reported as 13.2 nM, the “Emax (Fold)” value (GPR119 [1]) is reported as 4.3 Fold and the “Emax (% RR)” value (GPR119 [2]) is reported as 118.1 % RR.
In the case of `CCc1cnc(N2CCN(c3ncc(-c4ccc(-n5cnn(C)c5=O)cc4)cc3C#N)CC2)nc1` [Example 39, 2-(4-(5-ethylpyrimidin-2-yl)piperazin-1-yl)-5-(4-(1-methyl-5-oxo-1H-1,2,4-triazol-4(5H)-yl)phenyl)nicotinonitrile], the EC50 (GPR119 [1]) is reported as 3.8 nM, the “Emax (Fold)” value (GPR119 [1]) is reported as 3.9 Fold and the “Emax (% RR)” value (GPR119 [2]) is reported as 133.6 % RR.
For `CCc1cnc(N2CCN(c3ncc(-c4ccc(-n5cnn([C@H]6CCNC6)c5=O)cc4)cc3C#N)CC2)nc1` [Example 42, (S)-2-(4-(5-ethylpyrimidin-2-yl)piperazin-1-yl)-5-(4-(5-oxo-1-(pyrrolidin-3-yl)-1H-1,2,4-triazol-4(5H)-yl)phenyl)nicotinonitrile], the EC50 (GPR119 [1]) was 21 nM, the “Emax (Fold)” value (GPR119 [1]) was 3.0 Fold and the “Emax (% RR)” value (GPR119 [2]) was 109.3 % RR.
With `CC(C)c1nc(N2CCN(c3ncc(-c4ccc(-n5cnn(C)c5=O)c(F)c4)cc3C#N)CC2)no1` [Example 45, 5-(3-fluoro-4-(1-methyl-5-oxo-1H-1,2,4-triazol-4(5H)-yl)phenyl)-2-(4-(5-isopropyl-1,2,4-oxadiazol-3-yl)piperazin-1-yl)nicotinonitrile] the EC50 (GPR119 [1]) was 7.3 nM, the “Emax (Fold)” value (GPR119 [1]) was 4.2 Fold and the “Emax (% RR)” value (GPR119 [2]) was 144.7 % RR.
`CC(C)c1nc(N2CCN(c3ncc(-c4ccc(-n5cnn(C(C)C)c5=O)c(F)c4)cc3C#N)CC2)no1` [Example 46, 5-(3-fluoro-4-(1-isopropyl-5-oxo-1H-1,2,4-triazol-4(5H)-yl)phenyl)-2-(4-(5-isopropyl-1,2,4-oxadiazol-3-yl)piperazin-1-yl)nicotinonitrile] was tested, and the EC50 (GPR119 [1]) was 4.2 nM, the “Emax (Fold)” value (GPR119 [1]) was 3.9 Fold and the “Emax (% RR)” value (GPR119 [2]) was 133.3 % RR.
`COCn1ncn(-c2ccc(-c3cnc(N4CCN(c5noc(C(C)C)n5)CC4)c(C#N)c3)cc2)c1=O` [Example 48, 2-(4-(5-isopropyl-1,2,4-oxadiazol-3-yl)piperazin-1-yl)-5-(4-(1-(methoxymethyl)-5-oxo-1H-1,2,4-triazol-4(5H)-yl)phenyl)nicotinonitrile] was tested, and the EC50 (GPR119 [1]) was 16 nM, the “Emax (Fold)” value (GPR119 [1]) was 3.0 Fold and the “Emax (% RR)” value (GPR119 [2]) was 109.1 % RR.
In the case of `CCCn1ncn(-c2ccc(-c3cnc(N4CCN(c5noc(C(C)C)n5)CC4)c(C#N)c3)cc2F)c1=O.Cl` [Example 49, 5-(3-fluoro-4-(5-oxo-1-propyl-1H-1,2,4-triazol-4(5H)-yl)phenyl)-2-(4-(5-isopropyl-1,2,4-oxadiazol-3-yl)piperazin-1-yl)nicotinonitrile hydrochloride], the EC50 (GPR119 [1]) is reported as 7.3 nM, the “Emax (Fold)” value (GPR119 [1]) is reported as 4.2 Fold and the “Emax (% RR)” value (GPR119 [2]) is reported as 144.7 % RR.
For `CC(C)n1ncn(-c2ccc(-c3cnc(N4CCC(N(C)C(=O)OC(C)(C)C)CC4)c(C#N)c3)cc2F)c1=O` [Example 58, tert-butyl 1-(3-cyano-5-(3-fluoro-4-(1-isopropyl-5-oxo-1H-1,2,4-triazol-4(5H)-yl)phenyl)pyridin-2-yl)piperidin-4-yl(methyl)carbamate], the EC50 (GPR119 [1]) was 16 nM, the “Emax (Fold)” value (GPR119 [1]) was 2.6 Fold and the “Emax (% RR)” value (GPR119 [2]) was 105.4 % RR.
For `C=C(C)OC(=O)N(C)C1CCN(c2ncc(-c3ccc(-n4cnn(C(C)C)c4=O)c(F)c3)cc2C#N)CC1` [Example 59, prop-1-en-2-yl 1-(3-cyano-5-(3-fluoro-4-(1-isopropyl-5-oxo-1H-1,2,4-triazol-4(5H)-yl)phenyl)pyridin-2-yl)piperidin-4-yl(methyl)carbamate], the EC50 (GPR119 [1]) was 31 nM, the “Emax (Fold)” value (GPR119 [1]) was 2.5 Fold and the “Emax (% RR)” value (GPR119 [2]) was 100.8 % RR.
For `CCCn1ncn(-c2ccc(-c3cnc(N4CCC(c5nc(C(C)C)no5)CC4)c(C#N)c3)cc2F)c1=O` [Example 62, 5-(3-fluoro-4-(5-oxo-1-propyl-1H-1,2,4-triazol-4(5H)-yl)phenyl)-2-(4-(3-isopropyl-1,2,4-oxadiazol-5-yl)piperidin-1-yl)nicotinonitrile], the EC50 (GPR119 [1]) was 1.3 nM, the “Emax (Fold)” value (GPR119 [1]) was 3.5 Fold and the “Emax (% RR)” value (GPR119 [2]) was 122.7 % RR.
In the case of `CC(C)c1noc(C2CCN(c3ncc(-c4ccc(-n5cnn(CN6CCCC6)c5=O)c(F)c4)cc3C#N)CC2)n1` [Example 64, 5-(3-fluoro-4-(5-oxo-1-(pyrrolidin-1-ylmethyl)-1H-1,2,4-triazol-4(5H)-yl)phenyl)-2-(4-(3-isopropyl-1,2,4-oxadiazol-5-yl)piperidin-1-yl)nicotinonitrile], the EC50 (GPR119 [1]) is reported as 2.6 nM, the “Emax (Fold)” value (GPR119 [1]) is reported as 3.8 Fold and the “Emax (% RR)” value (GPR119 [2]) is reported as 130.8 % RR.
